Source: US10206394B2, “Herbicidal compounds” (Syngenta Participations AG, priority 2014, dated 2019)
Where two headings read alike, the source gives them in different places.

Experiments:
Experiment in all cases: Glasshouse assay for herbicidal activity (pre- and post-emergence), percentage phytotoxicity
Type in all cases: in vivo
Lolium perenne (LOLPE) = details: Lolium perenne
Method in brief: (§1)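 Visually rated damage, 0–100%. PRE spray 1 d after sowing, scored 20 DAA; POST spray ~12 d, scored 15 DAA. Glasshouse at 65% humidity, 16 h day.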

Avena fatua (AVEFA) = details: Avena fatua
Method in brief: as §1

[1] = tested on: Alopecurus myosuroides (ALOMY); details: Alopecurus myosuroides
Method in brief: as §1

[2] = tested on: Echinochloa crus-galli (ECHCG); details: Echinochloa crus-galli
Method in brief: as §1

[3] = post-emergence, 360 h, Rate 250 g/ha, post-emergence, visual assessment 15 DAA, 100%=total damage, 0%=no damage, read-out: Post-emergence herbicidal activity (percentage phytotoxicity) LOLPE POST
[4] = pre-emergence, 480 h, Rate 250 g/ha, pre-emergence, visual assessment 20 DAA, 100%=total damage, 0%=no damage, read-out: Pre-emergence herbicidal activity (percentage phytotoxicity) LOLPE PRE
[5] = post-emergence, 360 h, Rate 250 g/ha, post-emergence, visual assessment 15 DAA, 100%=total damage, 0%=no damage, read-out: Post-emergence herbicidal activity (percentage phytotoxicity) AVEFA POST
[6] = pre-emergence, 480 h, Rate 250 g/ha, pre-emergence, visual assessment 20 DAA, 100%=total damage, 0%=no damage, read-out: Pre-emergence herbicidal activity (percentage phytotoxicity) AVEFA PRE
[7] = post-emergence, 360 h, Rate 250 g/ha, post-emergence, visual assessment 15 DAA, 100%=total damage, 0%=no damage, read-out: Post-emergence herbicidal activity (percentage phytotoxicity) ALOMY POST
[8] = pre-emergence, 480 h, Rate 250 g/ha, pre-emergence, visual assessment 20 DAA, 100%=total damage, 0%=no damage, read-out: Pre-emergence herbicidal activity (percentage phytotoxicity) ALOMY PRE
[9] = post-emergence, 360 h, Rate 250 g/ha, post-emergence, visual assessment 15 DAA, 100%=total damage, 0%=no damage, read-out: Post-emergence herbicidal activity (percentage phytotoxicity) ECHCG POST
[10] = pre-emergence, 480 h, Rate 250 g/ha, pre-emergence, visual assessment 20 DAA, 100%=total damage, 0%=no damage, read-out: Pre-emergence herbicidal activity (percentage phytotoxicity) ECHCG PRE
[11] = post-emergence, 360 h, 250 g/ha, post-emergence, 15 DAA, visual assessment (100%=total damage, 0%=no damage), read-out: Post-emergence herbicidal activity (percentage phytotoxicity) LOLPE POST
[12] = pre-emergence, 480 h, 250 g/ha, pre-emergence, 20 DAA, visual assessment (100%=total damage, 0%=no damage), read-out: Pre-emergence herbicidal activity (percentage phytotoxicity) LOLPE PRE
[13] = post-emergence, 360 h, 250 g/ha, post-emergence, 15 DAA, visual assessment (100%=total damage, 0%=no damage), read-out: Post-emergence herbicidal activity (percentage phytotoxicity) AVEFA POST
[14] = pre-emergence, 480 h, 250 g/ha, pre-emergence, 20 DAA, visual assessment (100%=total damage, 0%=no damage), read-out: Pre-emergence herbicidal activity (percentage phytotoxicity) AVEFA PRE
[15] = post-emergence, 360 h, 250 g/ha, post-emergence, 15 DAA, visual assessment (100%=total damage, 0%=no damage), read-out: Post-emergence herbicidal activity (percentage phytotoxicity) ALOMY POST
[16] = pre-emergence, 480 h, 250 g/ha, pre-emergence, 20 DAA, visual assessment (100%=total damage, 0%=no damage), read-out: Pre-emergence herbicidal activity (percentage phytotoxicity) ALOMY PRE
[17] = post-emergence, 360 h, 250 g/ha, post-emergence, 15 DAA, visual assessment (100%=total damage, 0%=no damage), read-out: Post-emergence herbicidal activity (percentage phytotoxicity) ECHCG POST
[18] = pre-emergence, 480 h, 250 g/ha, pre-emergence, 20 DAA, visual assessment (100%=total damage, 0%=no damage), read-out: Pre-emergence herbicidal activity (percentage phytotoxicity) ECHCG PRE

SMILES | pest or weed control at 250 g/ha (Lolium perenne (LOLPE); [11]) | pest or weed control at 250 g/ha (Lolium perenne (LOLPE); [12]) | pest or weed control at 250 g/ha (Avena fatua (AVEFA); [13]) | pest or weed control at 250 g/ha (Avena fatua (AVEFA); [14]) | pest or weed control at 250 g/ha [1, 15] | pest or weed control at 250 g/ha [1, 16] | pest or weed control at 250 g/ha [2, 17] | pest or weed control at 250 g/ha [2, 18] | further results
C#CCNC(=O)CC1CC(=O)C(c2c(C)cc(-c3ncc(F)cc3F)cc2C)C1=O (stereo not drawn) [Compound B336] |  |  |  |  |  |  |  |  | pest or weed control at 250 g/ha (Lolium perenne (LOLPE); [3]): 100%; pest or weed control at 250 g/ha (Lolium perenne (LOLPE); [4]): 100%; pest or weed control at 250 g/ha (Avena fatua (AVEFA); [5]): 100%; pest or weed control at 250 g/ha (Avena fatua (AVEFA); [6]): 100%; pest or weed control at 250 g/ha [1, 7]: 100%; pest or weed control at 250 g/ha [1, 8]: 100%; pest or weed control at 250 g/ha [2, 9]: 100%; pest or weed control at 250 g/ha [2, 10]: 100%
Cc1cc(-c2cncnc2)cc(C)c1C1C(=O)CC(CC(=O)NCc2ncccc2Cl)C1=O (stereo not drawn) [Compound A143] |  |  |  |  |  |  |  |  | pest or weed control at 250 g/ha (Lolium perenne (LOLPE); post-emergence, 360 h, Rate 250 g/ha, post-emergence, assessed visually 15 DAA, 100%=total damage, 0%=no damage, read-out: Post-emergence herbicidal activity (percentage phytotoxicity) LOLPE POST): 20%; pest or weed control at 250 g/ha (Lolium perenne (LOLPE); pre-emergence, 480 h, Rate 250 g/ha, pre-emergence, assessed visually 20 DAA, 100%=total damage, 0%=no damage, read-out: Pre-emergence herbicidal activity (percentage phytotoxicity) LOLPE PRE): 10%; pest or weed control at 250 g/ha (Avena fatua (AVEFA); pre-emergence, 480 h, Rate 250 g/ha, pre-emergence, assessed visually 20 DAA, 100%=total damage, 0%=no damage, read-out: Pre-emergence herbicidal activity (percentage phytotoxicity) AVEFA PRE): 0%; pest or weed control at 250 g/ha ([1]; pre-emergence, 480 h, Rate 250 g/ha, pre-emergence, assessed visually 20 DAA, 100%=total damage, 0%=no damage, read-out: Pre-emergence herbicidal activity (percentage phytotoxicity) ALOMY PRE): 0%; pest or weed control at 250 g/ha ([2]; post-emergence, 360 h, Rate 250 g/ha, post-emergence, assessed visually 15 DAA, 100%=total damage, 0%=no damage, read-out: Post-emergence herbicidal activity (percentage phytotoxicity) ECHCG POST): 40%; pest or weed control at 250 g/ha ([2]; pre-emergence, 480 h, Rate 250 g/ha, pre-emergence, assessed visually 20 DAA, 100%=total damage, 0%=no damage, read-out: Pre-emergence herbicidal activity (percentage phytotoxicity) ECHCG PRE): 10%
C#CCN(CC#C)C(=O)CC1CC(=O)C(c2c(C)cc(C)cc2C)C1=O (stereo not drawn) [Compound B45] | 80% | 80% | 80% | 10% | 80% | 70% | 80% | 60% | 
Cc1cc(Br)cc(C)c1C1C(=O)CC(CC(=O)NC(C)C)C1=O (stereo not drawn) [Compound B140] | 90% | 90% | 90% | 80% | 90% | 90% | 80% | 70% | 
COCCCNC(=O)CC1CC(=O)C(c2c(C)cc(C)cc2C)C1=O (stereo not drawn) [Compound A176] |  |  |  |  |  |  |  |  | pest or weed control at 250 g/ha (Lolium perenne (LOLPE); post-emergence, 360 h, post-emergence, 250 g/ha, 15 DAA, visual score (100%=total damage; 0%=no damage), read-out: LOLPE POST herbicidal activity (percentage phytotoxicity)): 100%; pest or weed control at 250 g/ha (Lolium perenne (LOLPE); pre-emergence, 480 h, pre-emergence, 250 g/ha, 20 DAA, visual score (100%=total damage; 0%=no damage), read-out: LOLPE PRE herbicidal activity (percentage phytotoxicity)): 100%; pest or weed control at 250 g/ha (Avena fatua (AVEFA); post-emergence, 360 h, post-emergence, 250 g/ha, 15 DAA, visual score (100%=total damage; 0%=no damage), read-out: AVEFA POST herbicidal activity (percentage phytotoxicity)): 90%; pest or weed control at 250 g/ha (Avena fatua (AVEFA); pre-emergence, 480 h, pre-emergence, 250 g/ha, 20 DAA, visual score (100%=total damage; 0%=no damage), read-out: AVEFA PRE herbicidal activity (percentage phytotoxicity)): 90%; pest or weed control at 250 g/ha ([1]; post-emergence, 360 h, post-emergence, 250 g/ha, 15 DAA, visual score (100%=total damage; 0%=no damage), read-out: ALOMY POST herbicidal activity (percentage phytotoxicity)): 90%; pest or weed control at 250 g/ha ([1]; pre-emergence, 480 h, pre-emergence, 250 g/ha, 20 DAA, visual score (100%=total damage; 0%=no damage), read-out: ALOMY PRE herbicidal activity (percentage phytotoxicity)): 90%; pest or weed control at 250 g/ha ([2]; post-emergence, 360 h, post-emergence, 250 g/ha, 15 DAA, visual score (100%=total damage; 0%=no damage), read-out: ECHCG POST herbicidal activity (percentage phytotoxicity)): 100%; pest or weed control at 250 g/ha ([2]; pre-emergence, 480 h, pre-emergence, 250 g/ha, 20 DAA, visual score (100%=total damage; 0%=no damage), read-out: ECHCG PRE herbicidal activity (percentage phytotoxicity)): 100%
C/C=C/c1cc(C)c(C2C(=O)CC(CC(=O)NCC3CC3)C2=O)c(C)c1 (stereo not drawn) [Compound B247] |  |  |  |  |  |  |  |  | pest or weed control at 250 g/ha (Lolium perenne (LOLPE); post-emergence, 360 h, POST-emergence, rate 250 g/ha, visual score 15 DAA (100%=total damage, 0%=no damage), read-out: Post-emergence herbicidal activity (percentage phytotoxicity) LOLPE POST): 100%; pest or weed control at 250 g/ha (Lolium perenne (LOLPE); pre-emergence, 480 h, PRE-emergence, rate 250 g/ha, visual score 20 DAA (100%=total damage, 0%=no damage), read-out: Pre-emergence herbicidal activity (percentage phytotoxicity) LOLPE PRE): 80%; pest or weed control at 250 g/ha (Avena fatua (AVEFA); post-emergence, 360 h, POST-emergence, rate 250 g/ha, visual score 15 DAA (100%=total damage, 0%=no damage), read-out: Post-emergence herbicidal activity (percentage phytotoxicity) AVEFA POST): 100%; pest or weed control at 250 g/ha (Avena fatua (AVEFA); pre-emergence, 480 h, PRE-emergence, rate 250 g/ha, visual score 20 DAA (100%=total damage, 0%=no damage), read-out: Pre-emergence herbicidal activity (percentage phytotoxicity) AVEFA PRE): 80%; pest or weed control at 250 g/ha ([1]; post-emergence, 360 h, POST-emergence, rate 250 g/ha, visual score 15 DAA (100%=total damage, 0%=no damage), read-out: Post-emergence herbicidal activity (percentage phytotoxicity) ALOMY POST): 100%; pest or weed control at 250 g/ha ([1]; pre-emergence, 480 h, PRE-emergence, rate 250 g/ha, visual score 20 DAA (100%=total damage, 0%=no damage), read-out: Pre-emergence herbicidal activity (percentage phytotoxicity) ALOMY PRE): 90%; pest or weed control at 250 g/ha ([2]; post-emergence, 360 h, POST-emergence, rate 250 g/ha, visual score 15 DAA (100%=total damage, 0%=no damage), read-out: Post-emergence herbicidal activity (percentage phytotoxicity) ECHCG POST): 100%; pest or weed control at 250 g/ha ([2]; pre-emergence, 480 h, PRE-emergence, rate 250 g/ha, visual score 20 DAA (100%=total damage, 0%=no damage), read-out: Pre-emergence herbicidal activity (percentage phytotoxicity) ECHCG PRE): 60%
CCCNC(=O)CC1CC(=O)C(c2c(C)cccc2CC)C1=O (stereo not drawn) [Compound B150] | 100% | 100% | 100% | 90% | 100% | 100% | 100% | 100% | 
C#CC(C)NC(=O)CC1CC(=O)C(c2c(C)cc(C)cc2C)C1=O (stereo not drawn) [Compound B56] | 90% | 80% | 90% | 70% | 90% | 80% | 90% | 90% | 
COCC(C)(C)NC(=O)CC1CC(=O)C(c2c(C)cc(-c3ccc(F)cn3)cc2C)C1=O (stereo not drawn) [Compound B389] |  |  |  |  |  |  |  |  | pest or weed control at 250 g/ha (Lolium perenne (LOLPE); [3]): 90%; pest or weed control at 250 g/ha (Lolium perenne (LOLPE); [4]): 100%; pest or weed control at 250 g/ha (Avena fatua (AVEFA); [5]): 100%; pest or weed control at 250 g/ha (Avena fatua (AVEFA); [6]): 90%; pest or weed control at 250 g/ha [1, 7]: 100%; pest or weed control at 250 g/ha [1, 8]: 90%; pest or weed control at 250 g/ha [2, 9]: 100%; pest or weed control at 250 g/ha [2, 10]: 100%
Cc1cc(C)c(C2C(=O)CC(CC(=O)NC(C)(C)C#N)C2=O)c(C)c1 (stereo not drawn) [Compound B43] | 80% | 60% | 80% | 30% | 80% | 70% | 60% | 40% | 
